Consider five molecules from publication PMC4582818, “Identification of novel metabolic interactions controlling carbon flux from xylose to ethanol in natural and recombinant yeasts” (Biotechnology for Biofuels, 2015).

Series [1] deals with T1, CtXR (Yamadazyma tenuis, UniProt O74237).
T1 construct: gene XYL1; xylose reductase of C. tenuis CBS4435; preparation described only in Additional file 3
T1 sequence (O74237 1-322): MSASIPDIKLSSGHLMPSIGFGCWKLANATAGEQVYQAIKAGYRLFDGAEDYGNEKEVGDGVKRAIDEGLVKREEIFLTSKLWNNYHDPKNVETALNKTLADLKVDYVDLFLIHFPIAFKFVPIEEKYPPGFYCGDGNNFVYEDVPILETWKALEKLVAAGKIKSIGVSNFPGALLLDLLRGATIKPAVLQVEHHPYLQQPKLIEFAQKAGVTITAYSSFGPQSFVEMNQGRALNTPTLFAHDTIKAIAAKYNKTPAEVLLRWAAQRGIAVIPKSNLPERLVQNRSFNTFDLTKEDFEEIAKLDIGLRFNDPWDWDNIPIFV
Briefly: steady-state kinetics. It is filed as biochemical. The source says:
(§1) steady-state kinetics on CtXR

Another series addresses T2, CtG6PDH (Yamadazyma tenuis, UniProt G3B8L7).
T2 construct: gene CANTEDRAFT_115211; native enzyme, probably in cell-free extract of CBS4435 (details only in Additional file 3)
T2 sequence (G3B8L7 1-502): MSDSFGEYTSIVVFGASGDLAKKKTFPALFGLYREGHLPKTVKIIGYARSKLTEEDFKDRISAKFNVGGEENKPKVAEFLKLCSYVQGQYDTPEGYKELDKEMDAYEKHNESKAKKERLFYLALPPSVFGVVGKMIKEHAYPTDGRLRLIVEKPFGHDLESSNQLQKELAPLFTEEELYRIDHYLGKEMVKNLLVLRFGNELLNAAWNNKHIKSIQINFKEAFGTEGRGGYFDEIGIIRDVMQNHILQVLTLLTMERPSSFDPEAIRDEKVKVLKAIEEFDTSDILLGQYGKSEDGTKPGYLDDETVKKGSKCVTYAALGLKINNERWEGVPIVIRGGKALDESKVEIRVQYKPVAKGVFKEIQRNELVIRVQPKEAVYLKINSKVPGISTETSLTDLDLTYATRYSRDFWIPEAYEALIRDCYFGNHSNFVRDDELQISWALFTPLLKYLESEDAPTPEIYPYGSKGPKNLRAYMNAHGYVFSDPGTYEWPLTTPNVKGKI
Briefly: enzyme kinetics, product inhibition. The format is cell-based. The settings on record: competitive product inhibition; read-out: K i,NADPH. The source says:
enzyme kinetics, product inhibition on CtG6PDH

The target in series [2] is T1, CtXR. Briefly: ligand-binding analysis by fluorescence spectroscopy. The settings on record: read-out: NADP(H) (R 2) / PP (R 5), UG (R 9), LG (R 10). The source says: ligand-binding analysis by fluorescence spectroscopy on CtXR
Substrate in series [3]: NC(=O)c1ccc[n+]([C@@H]2O[C@H](COP(=O)(O)OP(=O)(O)OC[C@H]3O[C@@H](n4cnc5c(N)ncnc54)[C@H](O)[C@@H]3O)[C@@H](O)[C@H]2O)c1
Briefly: steady-state kinetics. The format is biochemical, Yamadazyma tenuis. The conditions noted are these: xylitol oxidation; pH 7.5; 25.0 °C; varied: cofactor.
From the text: as §1

Substrate in series [4]: NC(=O)c1ccc[n+]([C@@H]2O[C@H](COP(=O)(O)OP(=O)(O)OC[C@H]3O[C@@H](n4cnc5c(N)ncnc54)[C@H](OP(=O)(O)O)[C@@H]3O)[C@@H](O)[C@H]2O)c1
In words: steady-state kinetics. The format is biochemical, Yamadazyma tenuis. The conditions noted are these: xylitol oxidation; pH 7.5; 25.0 °C; varied: cofactor.
From the text: as §1

Substrate in series [5]: NC(=O)C1=CN([C@@H]2O[C@H](COP(=O)(O)OP(=O)(O)OC[C@H]3O[C@@H](n4cnc5c(N)ncnc54)[C@H](O)[C@@H]3O)[C@@H](O)[C@H]2O)C=CC1
Briefly: steady-state kinetics. It is filed as biochemical, Yamadazyma tenuis. The settings on record: xylose reduction; pH 7.5; 25.0 °C; varied: cofactor.
From the text: as §1

Substrate in series [6]: NC(=O)C1=CN([C@@H]2O[C@H](COP(=O)(O)OP(=O)(O)OC[C@H]3O[C@@H](n4cnc5c(N)ncnc54)[C@H](OP(=O)(O)O)[C@@H]3O)[C@@H](O)[C@H]2O)C=CC1
In words: steady-state kinetics. The format is biochemical, Yamadazyma tenuis. The settings on record: xylose reduction; pH 7.5; 25.0 °C; varied: cofactor.
From the text: as §1

Regarding `NC(=O)C1=CN([C@@H]2O[C@H](COP(=O)(O)OP(=O)(O)OC[C@H]3O[C@@H](n4cnc5c(N)ncnc54)[C@H](O)[C@@H]3O)[C@@H](O)[C@H]2O)C=CC1` [NADH], the “NAD(H) (R 1)” value on CtXR [1] (dissociation constant of NADH in the rate equation, xylose reduction) is 0.18 ± 0.04 mM.

As for `NC(=O)C1=CN([C@@H]2O[C@H](COP(=O)(O)OP(=O)(O)OC[C@H]3O[C@@H](n4cnc5c(N)ncnc54)[C@H](OP(=O)(O)O)[C@@H]3O)[C@@H](O)[C@H]2O)C=CC1` [NADPH], the Ki on CtG6PDH came out at 200 µM.

For `NC(=O)c1ccc[n+]([C@@H]2O[C@H](COP(=O)(O)OP(=O)(O)OC[C@H]3O[C@@H](n4cnc5c(N)ncnc54)[C@H](OP(=O)(O)O)[C@@H]3O)[C@@H](O)[C@H]2O)c1` [NADP^+], at CtXR [2], the Kd amounted to 5.9 ± 0.4 µM.

`NC(=O)c1ccc[n+]([C@@H]2O[C@H](COP(=O)(O)OP(=O)(O)OC[C@H]3O[C@@H](n4cnc5c(N)ncnc54)[C@H](O)[C@@H]3O)[C@@H](O)[C@H]2O)c1` [NAD^+]: the Ki on CtXR [1] (read-out: NAD(H) (R 1)) came to 344 ± 30 µM.

B1: CtXR (Yamadazyma tenuis) (protein)
chain: MSASIPDIKLSSGHLMPSIGFGCWKLANATAGEQVYQAIKAGYRLFDGAEDYGNEKEVGDGVKRAIDEGLVKREEIFLTSKLWNNYHDPKNVETALNKTLADLKVDYVDLFLIHFPIAFKFVPIEEKYPPGFYCGDGNNFVYEDVPILETWKALEKLVAAGKIKSIGVSNFPGALLLDLLRGATIKPAVLQVEHHPYLQQPKLIEFAQKAGVTITAYSSFGPQSFVEMNQGRALNTPTLFAHDTIKAIAAKYNKTPAEVLLRWAAQRGIAVIPKSNLPERLVQNRSFNTFDLTKEDFEEIAKLDIGLRFNDPWDWDNIPIFV
notes: xylose reductase of C. tenuis CBS4435; preparation described only in Additional file 3
One may read the Km as the concentration of substrate that gives half-maximal velocity. Consider B1, for which the Michaelis-Menten constant (Km) was found to be 19 ± 5 µM in “steady-state kinetics [3]”, 8 ± 1 µM in the series “steady-state kinetics [4]”, 40 ± 10 µM in “steady-state kinetics [5]” and 5 ± 2 µM in “steady-state kinetics [6]”.
